Reference: patent publication US20110081316A1, “PYRAZOLE INHIBITORS OF PHOSPHATIDYLINOSITOL 3-KINASE” (VERTEX PHARMACEUTICALS INCORPORATED, priority 2009, published 2011)

Target: PI3K-gamma (Homo sapiens, UniProt P48736)
Test: PI3K Inhibition Assay (33P-ATP, PI(4,5)P2 substrate, filter plate scintillation counting)
Assay type: biochemical
Conditions: 2 nM enzyme, 3 μM ATP, 30 μM PI(4,5)P2, 30 min at 25° C.; competitive tight binding Ki fit
Protocol: Using a Biomek FX from Beckman Coulter, 1.5 μL of each of ten 2.5-fold serial dilutions of a compound of the invention in 100% DMSO was added to an individual well (hereafter, “test well”) in a 96 well polystyrene plate [Corning, Costar Item No. 3697]. One test well also contained 1.5 μL of DMSO with no compound. […] Using a Titertek Multidrop, 50 μL of Reaction Mix [100 mM HEPES pH 7.5, 50 mM NaCl, 10 mM DTT, 0.2 mg/mL BSA, 60 μM phosphatidylinositol(4,5)bisphosphate diC16 (PI(4,5)P2; Avanti Polar Lipids, Cat. No. 840046P) and PI3K isoform of interest (see Table 3 for isoform concentrations)] was added to each well. To initiate the reaction, 50 μL of ATP Mix [20 mM MgCl2, 6 μM ATP (100 μCi/μmmole ^33P-ATP)] was added each well, followed by incubating the wells for 30 min. at 25° C. Final concentrations in each well were 50 mM HEPES 7.5, 10 mM MgCl2, 25 mM NaCl, 5 mM DTT, 0.1 mg/mL BSA, 30 μM PI(4,5)P2, 3 μM ATP, and the PI3K isoform of interest (see Table 3). Final compound concentrations in each well ranged from 10 μM to 1 nM. [table] After incubation, the reactions in each well were quenched by addition of 50 μL of stop solution [30% TCA/Water, 10 mM ATP]. Each quenched reaction mixture was then transferred to a 96 well glass fiber filter plate [Corning, Costar Item No. 3511]. The plate was vacuum-filtered and washed three times with 150 μL of 5% TCA/water in a modified Bio-Tek Instruments ELX-405 Auto Plate Washer. 50 μL of scintillation fluid was added to each well and the plate read on a Perkin-Elmer TopCount™ NXT liquid scintillation counter to obtain ^33P-counts representing inhibition values. The value for the background well was subtracted from the value obtained for each test well and the data were fit to the competitive tight binding Ki equation described by Morrison and Stone, Comments Mol. Cell. Biophys. 2: 347-368, 1985.

PI3K-gamma, sequence (P48736 whole entry, species assumed): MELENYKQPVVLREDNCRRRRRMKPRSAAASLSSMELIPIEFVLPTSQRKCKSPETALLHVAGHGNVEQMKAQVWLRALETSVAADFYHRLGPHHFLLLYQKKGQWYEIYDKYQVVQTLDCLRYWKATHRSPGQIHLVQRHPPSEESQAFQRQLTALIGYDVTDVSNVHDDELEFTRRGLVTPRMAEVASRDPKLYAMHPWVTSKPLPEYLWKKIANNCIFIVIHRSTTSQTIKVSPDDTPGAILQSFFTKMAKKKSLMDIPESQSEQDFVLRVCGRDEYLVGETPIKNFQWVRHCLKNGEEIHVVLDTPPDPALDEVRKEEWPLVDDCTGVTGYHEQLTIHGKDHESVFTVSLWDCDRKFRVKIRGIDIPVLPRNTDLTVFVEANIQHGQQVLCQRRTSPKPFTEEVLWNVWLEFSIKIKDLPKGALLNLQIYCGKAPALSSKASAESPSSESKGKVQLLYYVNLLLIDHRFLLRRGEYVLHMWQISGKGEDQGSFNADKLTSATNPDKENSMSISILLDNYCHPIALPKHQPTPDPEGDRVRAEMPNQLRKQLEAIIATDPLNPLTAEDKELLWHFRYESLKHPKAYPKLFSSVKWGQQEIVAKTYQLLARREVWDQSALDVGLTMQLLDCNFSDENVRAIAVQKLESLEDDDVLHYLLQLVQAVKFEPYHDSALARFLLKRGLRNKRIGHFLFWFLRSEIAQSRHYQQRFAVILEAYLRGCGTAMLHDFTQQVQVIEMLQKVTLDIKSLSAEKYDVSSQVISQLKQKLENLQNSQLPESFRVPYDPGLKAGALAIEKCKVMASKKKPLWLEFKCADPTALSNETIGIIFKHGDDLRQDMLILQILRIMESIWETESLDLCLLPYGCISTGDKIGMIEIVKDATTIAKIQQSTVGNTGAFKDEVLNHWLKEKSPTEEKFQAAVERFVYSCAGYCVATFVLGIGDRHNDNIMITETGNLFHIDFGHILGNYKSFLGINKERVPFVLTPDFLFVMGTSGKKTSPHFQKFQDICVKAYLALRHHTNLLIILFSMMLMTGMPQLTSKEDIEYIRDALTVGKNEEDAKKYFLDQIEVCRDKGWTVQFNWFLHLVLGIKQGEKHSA

Row | SMILES | Ki [nM]
1 | Cn1nc(NC(=O)NCCc2cn(CC(F)F)cn2)cc1C#Cc1cccnc1 [Compound 3] | < 100
2 | COc1cncc(C#Cc2cc(NC(=O)NCCOCC3CC3)nn2C)c1 [Compound 6] | < 100
3 | Cn1nc(NC(=O)NCCOCC2CC2)cc1C#Cc1ccc(N)nc1 [Compound 7] | < 100
4 | Cn1nc(NC(=O)NCCOCC2CC2)cc1C#Cc1cccnc1Cl [Compound 8] | < 100
5 | Cn1nc(NC(=O)NCCOCC2CC2)cc1C#Cc1ccc2nccnc2c1 [Compound 9] | < 100
6 | COc1cc(C#Cc2cc(NC(=O)NC[C@@H](C)OCC3CC3)nn2C)cnc1OC [Compound 11] | < 100
7 | C[C@@H](CNC(=O)Nc1cc(C#Cc2ccc3nccnc3c2)n(C)n1)OCC1CC1 [Compound 12] | < 100
8 | COc1cc(C#Cc2cc(NC(=O)NC[C@H](C)OCC3CC3)nn2C)cnc1OC [Compound 14] | < 100
